Results from article PMC7866087, “Evaluation of Computationally Designed Peptides against TWEAK, a Cytokine of the Tumour Necrosis Factor Ligand Family” (International Journal of Molecular Sciences, 2021).
Several values for one entry are separate records, joined by “and”; a condition that tells them apart may be missing. Equal values may be shown once.

System: TWEAK-Fn14 signalling pathway, BRV5 cells
Assay: Cell-based screening of individual peptides, gene expression microarray in TWEAK-stimulated BRV5 cells
Parameters: species or system human
Conditions: 6 h; for regulation of probe genes by individual peptides: BRV5 + TWEAK 25 ng/mL, peptides 450 µM; for BIRC2 mRNA expression (normalized to NARS2) / HSP90B1 mRNA expression (normalized to NARS2) / IL6 mRNA expression (normalized to NARS2) / JUN mRNA expression (normalized to NARS2) / MAP4K4 mRNA expression (normalized to NARS2) / MAPK14 mRNA expression (normalized to NARS2) / NFKB2 mRNA expression (normalized to NARS2) / TNFRSF12A mRNA expression (normalized to NARS2) / TRAF2 mRNA expression (normalized to NARS2) / BIRC2 expression Z-Score / HSP90B1 expression Z-Score / IL6 expression Z-Score / JUN expression Z-Score / MAP4K4 expression Z-Score / MAPK14 expression Z-Score / NFKB2 expression Z-Score / TNFRSF12A expression Z-Score / TRAF2 expression Z-Score: individual peptides, BRV5 + TWEAK; for BIRC2 mRNA expression (normalized to NARS2) / HSP90B1 mRNA expression (normalized to NARS2) / IL6 mRNA expression (normalized to NARS2) / JUN mRNA expression (normalized to NARS2) / MAP4K4 mRNA expression (normalized to NARS2) / MAPK14 mRNA expression (normalized to NARS2) / NFKB2 mRNA expression (normalized to NARS2) / TNFRSF12A mRNA expression (normalized to NARS2) / TRAF2 mRNA expression (normalized to NARS2): 450 µM; for BIRC2 expression Z-Score / HSP90B1 expression Z-Score / IL6 expression Z-Score / JUN expression Z-Score / MAP4K4 expression Z-Score / MAPK14 expression Z-Score / NFKB2 expression Z-Score / TNFRSF12A expression Z-Score / TRAF2 expression Z-Score: normalized to NARS2
From the text: Pool 1 and 5 were therefore deconstructed to assess the effect of individual peptides and their activity on same cell-based screening. Pools 1 and 5 were composed of peptides 45, 46, 42, 3, 49, 11, and 13; and of peptides 1, 9, 30, 35, 41, 43, 7, and 14, respectively. As before, and shown in Figure 4B, the level of expression of probe genes on TWEAK-stimulated (T) BRV5 cells is overall higher than on non-stimulated (NT) one. […] The structural model of peptides 43, 30, 35 and 49 bound to TWEAK can be seen in Figure 5 and Supplementary Materials Figures S4–S6, respectively.
Three different cell lines were used in this study: BRV5, MDA-MB 435 (435-P), and HT29. The BRV5 is a highly metastatic brain cell line, obtained in one of our laboratories by primary culture from a brain of a nude mouse inoculated with human 435-Br1 brain metastatic cells, as previously described and used as a model to test the peptides in cell cultures. […] The triple negative 435-P cell line is a useful human breast cancer model that expresses both epithelial and melanocytic markers, and was included as the parental cell from which 435-Br1 metastatic variant was initially originated (both cell lines kindly provided by Dr Fabra at IDIBELL Institute, Hospitalet de Llobregat, Spain). Finally, HT29 human colon carcinoma cells obtained from the European Type Culture Collection (ECACC 91072201) were used as a positive control of TWEAK dependent Fn14 over-expressing cells to evaluate TWEAK-Fn14 axis of brain metastatic variants.
Appropriate cell culture conditions were established as the controls needed in the expression of genes with and without peptides and with and without TWEAK activation, both as pools and individually (see Supplementary Materials Figure S2). The protocol started with the seeding of 125,000 cells/well in 500 µL of culture media supplemented with 10% fetal bovine serum (CM+FBS10%) in 24-well dishes for 24 h before removing FBS (CM-FBS). After overnight starvation in CM-FBS culture, different peptide treatment conditions (at final concentration of 450 µM) were established in the presence or absence of TWEAK (25 ng/mL final concentration) (Peprotech EC, Ltd., London, UK). Some cells were treated with peptides at a single, unique, initial dose (time 0) while other were treated with repeated doses to account for the effect cell-culture degradation. These include a repeated treatment every hour (i.e., […]), every two hours (time 0, 2, and 4) and every three hours (time 0 and 3)—see Supplementary Materials Figure S2 for diagrammatic depiction. At time 6 (after six hours) cells were lysed and RNA extracted for transcriptomic analyses (see next). Cell were culture for six hours as this was the time needed to achieve the highest upregulation of the TWEAK-Fn14 axis upon TWEAK treatment as shown in previous time-course RT-PCR experiments (see Figure 2).
RNA from cells was extracted 6 h after treatments by direct lysis on the well. The RNeasy Micro kit (Qiagen, Hilden, Germany) was used to isolate total RNA from cell lysate following manufacturer’s protocols including an additional step of digestion with DNase I (Qiagen, Hilden, Germany). Total RNA concentration was measured in a NanoDrop 1000 spectrophotometer (Thermo Scientific, Waltham, MA, USA). The RNA extracted from treated and untreated cells (see above) was used as a proxy for gene expression.
The quantitative RT-PCR was performed using Fluidigm Dynamic Array FlexSix array with the specific primers for gene expression (Delta Genes Assays, Wet lab tested on Dynamic Array IFC) designed to RefSeq for detection by pPCR EvaGreen assay (Dynamic Array FlexSix, Fluidigm Corporation). Each Flex Six IFC has a total of six independent partitions. Each partition has a 12 × 12 format (12 assay inlets and 12 sample inlets) and will be run independently as a separate experimental run. […]

Substance	BIRC2 mRNA expression (normalized to NARS2) (mean of replicate columns)	HSP90B1 mRNA expression (normalized to NARS2) (mean of replicate columns)	IL6 mRNA expression (normalized to NARS2) (mean of replicate columns)	JUN mRNA expression (normalized to NARS2) (mean of replicate columns)	MAP4K4 mRNA expression (normalized to NARS2) (mean of replicate columns)	MAPK14 mRNA expression (normalized to NARS2) (mean of replicate columns)	NFKB2 mRNA expression (normalized to NARS2) (mean of replicate columns)	TNFRSF12A mRNA expression (normalized to NARS2) (mean of replicate columns)	TRAF2 mRNA expression (normalized to NARS2) (mean of replicate columns)	BIRC2 mRNA expression (normalized to NARS2) (replicate column 1)	HSP90B1 mRNA expression (normalized to NARS2) (replicate column 1)	IL6 mRNA expression (normalized to NARS2) (replicate column 1)	JUN mRNA expression (normalized to NARS2) (replicate column 1)	MAP4K4 mRNA expression (normalized to NARS2) (replicate column 1)	MAPK14 mRNA expression (normalized to NARS2) (replicate column 1)	NFKB2 mRNA expression (normalized to NARS2) (replicate column 1)	TNFRSF12A mRNA expression (normalized to NARS2) (replicate column 1)	TRAF2 mRNA expression (normalized to NARS2) (replicate column 1)	BIRC2 mRNA expression (normalized to NARS2) (replicate column 2)	HSP90B1 mRNA expression (normalized to NARS2) (replicate column 2)	other results
11: SGVAYQETT [Peptide 11]	0.6438	2.54	0.001558	0.1006	0.1986	0.2184	0.047	0.01869	0.01037	0.6157	2.376	0.001178	0.09818	0.2001	0.2179	0.04834	0.01871	0.01036	0.6719	2.704	regulation of probe genes by individual peptides: induced a higher level of expression of the gene; IL6 mRNA expression (normalized to NARS2) (replicate column 2): 0.001938; JUN mRNA expression (normalized to NARS2) (replicate column 2): 0.1029; MAP4K4 mRNA expression (normalized to NARS2) (replicate column 2): 0.1972; MAPK14 mRNA expression (normalized to NARS2) (replicate column 2): 0.219; NFKB2 mRNA expression (normalized to NARS2) (replicate column 2): 0.04567; TNFRSF12A mRNA expression (normalized to NARS2) (replicate column 2): 0.01867; TRAF2 mRNA expression (normalized to NARS2) (replicate column 2): 0.01038; BIRC2 expression Z-Score (listed as P11): 0.5906; HSP90B1 expression Z-Score (listed as P11): 0.5337; IL6 expression Z-Score (listed as P11): -0.2862; JUN expression Z-Score (listed as P11): 0.0366 and 0.03662; MAP4K4 expression Z-Score (listed as P11): 0.3403; MAPK14 expression Z-Score (listed as P11): 0.3151; NFKB2 expression Z-Score (listed as P11): 0.622; TNFRSF12A expression Z-Score (listed as P11): -0.2085; TRAF2 expression Z-Score (listed as P11): -0.4411
13: YSGYFGGFY [Peptide 13]	0.4307	2.183	0.005226	0.4257	0.2531	0.2388	0.05228	0.02853	0.02474	0.4177	2.2352	0.005457	0.419	0.2593	0.2431	0.05087	0.02856	0.02503	0.4436	2.131	regulation of probe genes by individual peptides: to some extent, 13 induced a higher level of expression of the gene; IL6 mRNA expression (normalized to NARS2) (replicate column 2): 0.004995; JUN mRNA expression (normalized to NARS2) (replicate column 2): 0.4325; MAP4K4 mRNA expression (normalized to NARS2) (replicate column 2): 0.2468; MAPK14 mRNA expression (normalized to NARS2) (replicate column 2): 0.2344; NFKB2 mRNA expression (normalized to NARS2) (replicate column 2): 0.05368; TNFRSF12A mRNA expression (normalized to NARS2) (replicate column 2): 0.0285; TRAF2 mRNA expression (normalized to NARS2) (replicate column 2): 0.02446; BIRC2 expression Z-Score (listed as P13): -0.8852; HSP90B1 expression Z-Score (listed as P13): -0.101; IL6 expression Z-Score (listed as P13): 2.8881 and 2.888; JUN expression Z-Score (listed as P13): 3.7769 and 3.777; MAP4K4 expression Z-Score (listed as P13): 1.699; MAPK14 expression Z-Score (listed as P13): 0.6701; NFKB2 expression Z-Score (listed as P13): 1.124; TNFRSF12A expression Z-Score (listed as P13): 0.91; TRAF2 expression Z-Score (listed as P13): 0.255
46: TGYAENV [Peptide 46]	0.5415	2.314	0.00187	0.08801	0.2105	0.2302	0.05417	0.01829	0.01616	0.5372	2.32	0.00168	0.08305	0.1965	0.2456	0.05593	0.0189	0.01641	0.5458	2.3087	IL6 mRNA expression (normalized to NARS2) (replicate column 2): 0.002059; JUN mRNA expression (normalized to NARS2) (replicate column 2): 0.09296; MAP4K4 mRNA expression (normalized to NARS2) (replicate column 2): 0.2245; MAPK14 mRNA expression (normalized to NARS2) (replicate column 2): 0.2147; NFKB2 mRNA expression (normalized to NARS2) (replicate column 2): 0.05241; TNFRSF12A mRNA expression (normalized to NARS2) (replicate column 2): 0.01767; TRAF2 mRNA expression (normalized to NARS2) (replicate column 2): 0.01592; BIRC2 expression Z-Score (listed as P46): -0.118; HSP90B1 expression Z-Score (listed as P46): 0.1322; IL6 expression Z-Score (listed as P46): -0.0166 and -0.01658; JUN expression Z-Score (listed as P46): -0.1078; MAP4K4 expression Z-Score (listed as P46): 0.6365; MAPK14 expression Z-Score (listed as P46): 0.5199; NFKB2 expression Z-Score (listed as P46): 1.3042 and 1.304; TNFRSF12A expression Z-Score (listed as P46): -0.2543; TRAF2 expression Z-Score (listed as P46): -0.1604
SGVSTAQLD [Peptide 4]	0.6267	2.423	0.001966	0.1025	0.2128	0.1993	0.04458	0.01499	0.01397	0.6069	2.308	0.001514	0.09341	0.1972	0.1927	0.04237	0.01676	0.01481	0.6465	2.538	regulation of probe genes by individual peptides: induced a higher level of expression of the gene; IL6 mRNA expression (normalized to NARS2) (replicate column 2): 0.002418; JUN mRNA expression (normalized to NARS2) (replicate column 2): 0.1116; MAP4K4 mRNA expression (normalized to NARS2) (replicate column 2): 0.2284; MAPK14 mRNA expression (normalized to NARS2) (replicate column 2): 0.2059; NFKB2 mRNA expression (normalized to NARS2) (replicate column 2): 0.04678; TNFRSF12A mRNA expression (normalized to NARS2) (replicate column 2): 0.01322; TRAF2 mRNA expression (normalized to NARS2) (replicate column 2): 0.01313; BIRC2 expression Z-Score (listed as P4): 0.4721; HSP90B1 expression Z-Score (listed as P4): 0.3256; IL6 expression Z-Score (listed as P4): 0.0669 and 0.06688; JUN expression Z-Score (listed as P4): 0.0589 and 0.05892; MAP4K4 expression Z-Score (listed as P4): 0.6937; MAPK14 expression Z-Score (listed as P4): -0.0192 and -0.01918; NFKB2 expression Z-Score (listed as P4): 0.3908; TNFRSF12A expression Z-Score (listed as P4): -0.6289; TRAF2 expression Z-Score (listed as P4): -0.2666
